Assay results as given in the NIST ThermoML archive (doi:10.1016/j.jct.2009.10.002).

Assay: mn = molality of the nth substance listed, in mol/kg
Conditions: 298.15 K, 101 kPa, Liquid, Vibrating tube method

NC(=O)c1cccc(O)c1 [3-hydroxy-benzamide] + CCCCCCCCO
Conditions	mass density [kg/m3]
m1 = 0.001492	822.16
m1 = 0.002531	822.2
m1 = 0.003737	822.25
m1 = 0.006435	822.38
m1 = 0.007522	822.43
m1 = 0.01163	822.62
m1 = 0.02156	823.03
m1 = 0.03239	823.51
m1 = 0.04091	823.88
m1 = 0.05285	824.43
m1 = 0.07208	825.26
m1 = 0.08749	825.95

Oc1ccccc1 [phenol] + CCCCCCCCO
Conditions	mass density [kg/m3]
m1 = 0.01293	822.32
m1 = 0.0235	822.59
m1 = 0.03299	822.87
m1 = 0.04712	823.32
m1 = 0.06563	823.78
m1 = 0.1179	825.01
m1 = 0.2355	827.82
m1 = 0.2692	828.62
m1 = 0.3564	831.14
m1 = 0.4787	834.18

CC(=O)Nc1cccc(O)c1 [3-acetamidophenol] + CCCCCCCCO
Conditions	mass density [kg/m3]
m1 = 0.002796	822.21
m1 = 0.006909	822.37
m1 = 0.008394	822.43
m1 = 0.01356	822.62
m1 = 0.02056	822.89
m1 = 0.04126	823.67
m1 = 0.08892	825.48
m1 = 0.1451	827.61
m1 = 0.1875	829.24
m1 = 0.2708	832.45

NC(=O)c1ccc(O)cc1 [4-hydroxybenzamide] + CCCCCCCCO
Conditions	mass density [kg/m3]
m1 = 0.002127	822.18
m1 = 0.005332	822.31
m1 = 0.005725	822.34
m1 = 0.007571	822.43
m1 = 0.01115	822.59
m1 = 0.01722	822.85
m1 = 0.02131	822.99
m1 = 0.02267	823.06
m1 = 0.02734	823.25
m1 = 0.02874	823.32
m1 = 0.038	823.71
m1 = 0.05733	824.52
m1 = 0.0819	825.53
m1 = 0.09825	826.23
m1 = 0.1209	827.18
m1 = 0.1408	828.01
m1 = 0.1856	829.93

CC(=O)Nc1ccc(O)cc1 [N-acetyl-p-aminophenol] + CCCCCCCCO
Conditions	mass density [kg/m3]
m1 = 0.006684	822.49
m1 = 0.009351	822.61
m1 = 0.01261	822.76
m1 = 0.0141	822.83
m1 = 0.01601	822.91
m1 = 0.01873	823.05
m1 = 0.02173	823.19
m1 = 0.02486	823.33
m1 = 0.03075	823.59
m1 = 0.03578	823.8
m1 = 0.04077	824.01
m1 = 0.04581	824.23
m1 = 0.05103	824.46
m1 = 0.05889	824.81
m1 = 0.06631	825.1
m1 = 0.07665	825.5
m1 = 0.08633	825.93
m1 = 0.1379	828.16

CC(=O)Nc1cccc(C(=O)O)c1 [3-(acetylamino)benzoic acid] + CCCCCCCCO
Conditions	mass density [kg/m3]
m1 = 0.000244	822.13
m1 = 0.000488	822.14
m1 = 0.000973	822.17
m1 = 0.001081	822.17
m1 = 0.001283	822.18
m1 = 0.001361	822.19
m1 = 0.001375	822.19
m1 = 0.001452	822.19
m1 = 0.001582	822.2
m1 = 0.002358	822.23
m1 = 0.003857	822.28
m1 = 0.006025	822.36
m1 = 0.007586	822.43
m1 = 0.009397	822.51
m1 = 0.0109	822.57
m1 = 0.01161	822.6
m1 = 0.01355	822.68
m1 = 0.01453	822.72

NC(=O)c1ccccc1O [2-hydroxybenzamide] + CCCCCCCCO
Conditions	mass density [kg/m3]
m1 = 0.002458	822.19
m1 = 0.003905	822.23
m1 = 0.0061	822.31
m1 = 0.007816	822.37
m1 = 0.01182	822.51
m1 = 0.02311	822.87
m1 = 0.03084	823.13
m1 = 0.03859	823.39
m1 = 0.05387	823.86
m1 = 0.08947	825.16
